Patent US6905841B2, “Enzymatic substrates for detecting Pseudomonas aeruginas” (Biomerieux S.A., priority 1999, dated 2005)
Like-named read-outs stand apart in the source and are kept apart here.

How the values were obtained:
β-alanine aminopeptidase [1] = experiment: APIZYM-type test strips with β-alanyl-β-naphthylamide; format: cell-based; details: Pseudomonas fluorescens; five strains
β-alanine aminopeptidase [2] = experiment: as above; format: cell-based; details: Brevundimonas vesicularis; five strains
β-alanine aminopeptidase [3] = experiment: as above; format: cell-based; details: Pasteurella pneumotropica; 4 strains
β-alanine aminopeptidase [4] = experiment: as above; format: cell-based; details: Edwarsiella tarda; 2 strains
β-alanine aminopeptidase [5] = experiment: as above; format: cell-based; details: Pseudomonas stutzeri; five strains
β-alanine aminopeptidase [6] = details: Achromobacter xylosoxydans; 2 strains tested; read after 22 to 24 hours
β-alanine aminopeptidase [7] = details: Citrobacter amalonaticus; 2 strains tested; read after 22 to 24 hours
β-alanine aminopeptidase [8] = details: Vibrio vulnificus; 1 strain tested; read after 22 to 24 hours
β-alanine aminopeptidase [9] = details: Enterobacter intermedius; 1 strain tested; read after 22 to 24 hours
β-alanine aminopeptidase [10] = details: Brevundimonas diminuta; 2 strains tested; read after 22 to 24 hours

Row | Molecule | β-alanine aminopeptidase activity, result (β-alanine aminopeptidase [1]) | β-alanine aminopeptidase activity, result (β-alanine aminopeptidase [2]) | β-alanine aminopeptidase activity, result (β-alanine aminopeptidase [3]) | β-alanine aminopeptidase activity, result (β-alanine aminopeptidase [4]) | β-alanine aminopeptidase activity, result (β-alanine aminopeptidase [5]) | Number of negative results (β-alanine aminopeptidase [6]) | Number positive results (β-alanine aminopeptidase [6]) | Number of negative results (β-alanine aminopeptidase [7]) | Number positive results (β-alanine aminopeptidase [7]) | Number of negative results (β-alanine aminopeptidase [8]) | Number positive results (β-alanine aminopeptidase [8]) | Number of negative results (β-alanine aminopeptidase [9]) | Number positive results (β-alanine aminopeptidase [9]) | Number of negative results (β-alanine aminopeptidase [10]) | Number positive results (β-alanine aminopeptidase [10])
1 | β-alanyl-β-naphthylamide | positive | negative | negative | negative | negative |  |  |  |  |  |  |  |  |  | 
2 | NCCC(=O)c1c(N)cc(Cl)c(O)c1Cl |  |  |  |  |  | 2 | 0 | 2 | 0 | 1 | 0 | 1 | 0 | 2 | 0
